Reference: patent US20240254119A1 (THIRD HARMONIC BIO, INC., priority 2022, published 2024)

Key:
[1] = test system: KIT phosphorylation in M-07e cells; test: Cell-based KIT phosphorylation in M-07e cells by pKIT ELISA; design: species or system human; details: SCF stimulation
Method in brief: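 Serum-starved M-07e cells (1 × 10^6/mL, overnight) were treated with compounds (8-point 3-fold series from 1 uM) for 2 h at 37 °C, then stimulated with 100 ng/mL SCF for 5 min. Lysate phospho-KIT was captured on anti-phospho-CD117 plates, detected with anti-pY-HRP, and read at 450 nm against a pc-KIT standard curve.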

MDR1 (MDR1-MDCKII cells) = biological target: T1, MDR1 (MDR1-MDCKII cells) (Homo sapiens, UniProt P08183); test: Permeability in MDR1-MDCKII cells; format: in vitro ADME; details: for MDCKII-MDR1: Papp A-B: MDCKII-MDR1, apical to basolateral
T1 construct: host or cells: MDCKII (canine kidney) cells
T1 sequence (P08183 whole entry): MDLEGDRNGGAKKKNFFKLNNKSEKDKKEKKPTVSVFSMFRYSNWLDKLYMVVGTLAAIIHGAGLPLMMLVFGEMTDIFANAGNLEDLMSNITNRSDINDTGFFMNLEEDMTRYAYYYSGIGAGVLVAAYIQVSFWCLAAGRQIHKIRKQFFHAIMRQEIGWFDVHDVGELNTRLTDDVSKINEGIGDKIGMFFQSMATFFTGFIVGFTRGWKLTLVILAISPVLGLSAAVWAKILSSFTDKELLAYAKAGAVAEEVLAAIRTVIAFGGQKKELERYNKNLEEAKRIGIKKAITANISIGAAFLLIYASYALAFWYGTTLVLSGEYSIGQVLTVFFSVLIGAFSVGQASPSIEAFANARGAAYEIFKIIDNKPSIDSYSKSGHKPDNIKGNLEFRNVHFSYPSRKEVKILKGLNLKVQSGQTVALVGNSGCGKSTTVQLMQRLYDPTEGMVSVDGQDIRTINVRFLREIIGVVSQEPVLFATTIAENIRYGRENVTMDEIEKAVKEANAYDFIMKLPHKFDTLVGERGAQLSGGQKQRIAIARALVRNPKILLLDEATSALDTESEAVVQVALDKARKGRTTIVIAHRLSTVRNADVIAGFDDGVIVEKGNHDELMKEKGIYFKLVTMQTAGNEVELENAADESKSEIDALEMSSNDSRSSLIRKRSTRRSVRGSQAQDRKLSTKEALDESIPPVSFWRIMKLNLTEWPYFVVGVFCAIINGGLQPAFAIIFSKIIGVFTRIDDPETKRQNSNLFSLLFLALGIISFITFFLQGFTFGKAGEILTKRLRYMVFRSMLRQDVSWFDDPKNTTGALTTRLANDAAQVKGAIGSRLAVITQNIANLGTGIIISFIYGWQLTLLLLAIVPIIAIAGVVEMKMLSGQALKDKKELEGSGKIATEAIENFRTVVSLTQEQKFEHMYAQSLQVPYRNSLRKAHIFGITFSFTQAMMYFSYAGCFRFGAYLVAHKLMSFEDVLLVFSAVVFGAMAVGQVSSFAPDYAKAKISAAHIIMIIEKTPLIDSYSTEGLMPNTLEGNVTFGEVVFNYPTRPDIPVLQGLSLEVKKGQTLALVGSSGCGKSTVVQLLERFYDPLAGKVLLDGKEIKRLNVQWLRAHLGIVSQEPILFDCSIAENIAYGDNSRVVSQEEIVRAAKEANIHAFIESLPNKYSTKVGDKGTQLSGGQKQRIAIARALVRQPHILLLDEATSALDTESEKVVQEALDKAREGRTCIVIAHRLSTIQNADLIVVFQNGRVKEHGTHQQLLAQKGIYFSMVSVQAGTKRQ
Protocol: Exemplary compounds were tested for cell permeability in Caco-2, MDCKII-MDR1 and MDCKII-BCRP cell lines with efflux transporter engagement inferred from the efflux ratios determined. Procedures and results are described below. […] This feature of certain compounds is in part due to efflux transporter engagement. See, for instance, exemplary such compounds included in data tables below.
MDR1-MDCKII cells (obtained from Piet Borst at the Netherlands Cancer Institute) were seeded onto […] membranes (PET) in 96-well insert systems at 2.5×10^5 cells/mL until to 4-7 days for confluent cell monolayer formation.
Test compounds were diluted with the transport buffer (HBSS with 10 mM Hepes, pH7.4) from DMSO stock solution to a concentration of 2.00 μM (DMSO<1%) and applied to the apical or basolateral side of the cell monolayer. Permeation of the test compounds from A to B direction or B to A direction was determined in duplicate. Digoxin was tested at 10.0 μM from A to B direction or B to A direction as well, while nadolol and metoprolol were tested at […] in A to B direction in duplicate. The plate was incubated for 2.5 hours in CO2 incubator at 37±1° C., with 5% CO2 at saturated humidity without shaking. In addition, the efflux ratio of each compound was also determined. Test and reference compounds were quantified by LC-MS/MS analysis based on the peak area ratio of analyte/IS.
After transport assay, Lucifer yellow rejection assay are applied to determine the cell monolayer integrity. Buffers are removed from both apical and basolateral chambers, followed by the addition of 75 μL of 100 μM lucifer yellow in transport buffer and 250 μL transport buffer in apical and basolateral chambers, respectively. The plate is incubated for 30 minutes at 37° C. with 5% CO2 and saturated humidity without shaking. After 30 minutes incubation, 20 μL of lucifer yellow samples are taken from the apical sides, followed by the addition of 60 μL of Transport Buffer. And then 80 μL of lucifer yellow samples are taken from the basolateral sides. The relative fluorescence unit (RFU) of lucifer yellow is measured at 425/528 nm (excitation/emission) with an Envision plate reader.
The apparent permeability coefficient Papp (cm/s) was calculated using the equation: […]
Where dCr/dt is the cumulative concentration of compound in the receiver chamber as a function of time (μM/s); Vr is the solution volume in the receiver chamber (0.075 mL on the apical side, 0.25 mL on the basolateral side); A is the surface area for the transport, i.e. 0.0804 cm^2 for the area of the monolayer; C0 is the initial concentration in the donor chamber (μM). The efflux ratio was calculated using the equation: […]
Where Vd is the volume in the donor chambers (0.075 mL on the apical side, 0.25 mL on the basolateral side); Cd and Cr are the final concentrations of transport compound in donor and receiver chambers, respectively.

Cc1ccc(-c2noc(C3CCC(F)C3)n2)cc1NC(=O)c1cnc2ccccn12 (racemic) [Compound I-319]
IC50 [1]: ≤ 50 nM | MDCKII-MDR1: Efflux Ratio (MDR1 (MDR1-MDCKII cells)): 0.76 | MDCKII-MDR1: Papp A-B (MDR1 (MDR1-MDCKII cells)): 10 10^−6 cm/s

Cc1ccc(-c2noc(C3CCC3F)n2)cc1NC(=O)c1cnc2ccccn12 (racemic) [Compound I-376]
IC50 [1]: ≤ 50 nM | MDCKII-MDR1: Efflux Ratio (MDR1 (MDR1-MDCKII cells)): 0.54 | MDCKII-MDR1: Papp A-B (MDR1 (MDR1-MDCKII cells)): 8.41 10^−6 cm/s

Cc1ccc(-c2noc(C(C)NS(C)(=O)=O)n2)cc1NC(=O)c1cnc2ccccn12 (single isomer, unassigned) [Compound I-237]
IC50 [1]: 50 to 500 nM | MDCKII-MDR1: Efflux Ratio (MDR1 (MDR1-MDCKII cells)): 20.5 | MDCKII-MDR1: Papp A-B (MDR1 (MDR1-MDCKII cells)): 1.43 10^−6 cm/s

Cc1ccc(-c2noc(CC(O)C(F)F)n2)cc1NC(=O)c1cnc2ccccn12 (stereo not shown) [Compound I-122]
IC50 [1]: ≤ 50 nM

Cc1ccc(-c2noc(C3CC4(CCC4)C3)n2)cc1NC(=O)c1cnc2ccccn12 [Compound I-367]
IC50 [1]: ≤ 50 nM

Cc1ccc(-c2noc(C3CC(C)(F)C3)n2)cc1NC(=O)c1cnc2ccccn12 (stereo not shown) [Compound I-387]
IC50 [1]: ≤ 50 nM | MDCKII-MDR1: Efflux Ratio (MDR1 (MDR1-MDCKII cells)): 0.48 | MDCKII-MDR1: Papp A-B (MDR1 (MDR1-MDCKII cells)): 7.59 10^−6 cm/s

CNC(=O)N1CC(c2nc(-c3ccc(C)c(NC(=O)c4cnc5ccccn45)c3)no2)C1 [Compound I-282]
MDCKII-MDR1: Efflux Ratio (MDR1 (MDR1-MDCKII cells)): 70.3 | MDCKII-MDR1: Papp A-B (MDR1 (MDR1-MDCKII cells)): 0.47 10^−6 cm/s

COC(=O)N1CC(c2nc(-c3ccc(Cl)c(NC(=O)c4cnc5ccccn45)c3)no2)C1 [Compound I-339]
IC50 [1]: ≤ 50 nM | MDCKII-MDR1: Efflux Ratio (MDR1 (MDR1-MDCKII cells)): 0.84 | MDCKII-MDR1: Papp A-B (MDR1 (MDR1-MDCKII cells)): 22.8 10^−6 cm/s

CCOc1ccn2c(C(=O)Nc3cc(-c4noc([C@H]5C[C@@H]5F)n4)ccc3C)cnc2c1 [Compound I-93]
IC50 [1]: ≤ 50 nM

Cc1ccc(-c2noc([C@H]3C[C@@H]3F)n2)cc1NC(=O)c1cnc2ccc(C#N)cn12 [Compound I-384]
MDCKII-MDR1: Efflux Ratio (MDR1 (MDR1-MDCKII cells)): 0.88 | MDCKII-MDR1: Papp A-B (MDR1 (MDR1-MDCKII cells)): 17.9 10^−6 cm/s

Cc1ccc(-c2noc(C(C)NS(C)(=O)=O)n2)cc1NC(=O)c1cnc2ccccn12 (single isomer, unassigned) [Compound I-238]
IC50 [1]: 50 to 500 nM

Cc1ccc(-c2cnc(N3CC(F)(F)C3)o2)cc1NC(=O)c1cnc2ccccn12 [Compound I-213]
IC50 [1]: 50 to 500 nM

COC(=O)N1CC(c2nc(-c3ccc(C)c(NC(=O)c4cnn5cc(C#N)ccc45)c3)no2)C1 [Compound I-204]
IC50 [1]: 50 to 500 nM

Cc1ccc(-c2noc(C3CC(OCCF)C3)n2)cc1NC(=O)c1cnc2ccccn12 (stereo not shown) [Compound I-369]
MDCKII-MDR1: Efflux Ratio (MDR1 (MDR1-MDCKII cells)): 0.87 | MDCKII-MDR1: Papp A-B (MDR1 (MDR1-MDCKII cells)): 24.4 10^−6 cm/s

Cc1ccc(-c2noc([C@@H](C)O)n2)cc1NC(=O)c1cnc2ccccn12 [Compound I-270]
MDCKII-MDR1: Efflux Ratio (MDR1 (MDR1-MDCKII cells)): 1.73 | MDCKII-MDR1: Papp A-B (MDR1 (MDR1-MDCKII cells)): 17.2 10^−6 cm/s

COC(=O)N1CC(c2nc(-c3ccc(C)c(NC(=O)c4cnc5cc(OC[C@H](C)O)ccn45)c3)no2)C1 [Compound I-262]
IC50 [1]: ≤ 50 nM

COCCS(=O)(=O)N1CC(c2nc(-c3ccc(C)c(NC(=O)c4cnc5ccccn45)c3)no2)C1 [Compound I-235]
IC50 [1]: 50 to 500 nM

Cc1ccc(-c2noc(CC3CC3(F)F)n2)cc1NC(=O)c1cnc2ccccn12 (stereo not shown) [Compound I-125]
IC50 [1]: ≤ 50 nM

Cc1ccc(-c2noc(CC(C)O)n2)cc1NC(=O)c1cnc2ccccn12 (racemic) [Compound I-363]
MDCKII-MDR1: Efflux Ratio (MDR1 (MDR1-MDCKII cells)): 2.01 | MDCKII-MDR1: Papp A-B (MDR1 (MDR1-MDCKII cells)): 13 10^−6 cm/s

Cc1ccc(-c2noc(C3CCC3F)n2)cc1NC(=O)c1cnc2ccccn12 (racemic) [Compound I-377]
IC50 [1]: ≤ 50 nM

Cc1nc(-c2ccc(C)c(NC(=O)c3cnc4ccccn34)c2)no1 [Compound I-360]
IC50 [1]: ≤ 50 nM

Cc1nc(-c2ccc(C)c(NC(=O)c3cnc4ccc(N(C)C)cn34)c2)no1 [Compound I-205]
IC50 [1]: ≤ 50 nM

Cc1ccc(-c2noc([C@H]3C[C@@H]3F)n2)cc1NC(=O)c1cnc2cc(COCC(C)(C)O)ccn12 [Compound I-71, N-[5-[5-[(1R,2S)-2-fluorocyclopropyl]-1,2,4-oxadiazol-3-yl]-2-methyl-phenyl]-7-[(2-hydroxy-2-methyl-propoxy)methyl]imidazo[1,2-a]pyridine-3-carboxamide]
IC50 ([1]; Homo sapiens): ≤ 50 nM

Cc1ccc(-c2noc(C3CCN3)n2)cc1NC(=O)c1cnc2ccccn12 (racemic) [Compound I-394]
MDCKII-MDR1: Efflux Ratio (MDR1 (MDR1-MDCKII cells)): 3.08 | MDCKII-MDR1: Papp A-B (MDR1 (MDR1-MDCKII cells)): 6.21 10^−6 cm/s

COC(=O)N1CC(c2nc(-c3ccc(C)c(NC(=O)c4cnc5cc(OC[C@@H](C)O)ccn45)c3)no2)C1 [Compound I-263]
IC50 [1]: ≤ 50 nM

Cc1ccc(-c2noc(C(C)O)n2)cc1NC(=O)c1cnc2ccccn12 (racemic) [Compound I-364]
MDCKII-MDR1: Efflux Ratio (MDR1 (MDR1-MDCKII cells)): 2.02 | MDCKII-MDR1: Papp A-B (MDR1 (MDR1-MDCKII cells)): 16 10^−6 cm/s

COc1ccc2ncc(C(=O)Nc3cc(-c4noc(C[C@@H](C)O)n4)ccc3C)n2c1 [Compound I-119]
IC50 [1]: ≤ 50 nM

COC(=O)N1CC(c2nc(-c3ccc(C)c(NC(=O)c4cnc5cc(O[C@@H](C)CO)ccn45)c3)no2)C1 (single isomer, unassigned) [Compound I-217]
IC50 [1]: 50 to 500 nM

Cc1ccc(-c2noc(CO)n2)cc1NC(=O)c1cnc2ccccn12 [Compound I-337]
IC50 [1]: ≤ 50 nM

COc1ccn2c(C(=O)Nc3cc(-c4noc(C5CC(F)(F)C5)n4)ccc3C)cnc2c1 [Compound I-96]
IC50 [1]: ≤ 50 nM

Cc1ccc(-c2noc(C3(C)CC(F)(F)CN3)n2)cc1NC(=O)c1cnc2ccccn12 (racemic) [Compound I-328]
MDCKII-MDR1: Efflux Ratio (MDR1 (MDR1-MDCKII cells)): 0.93 | MDCKII-MDR1: Papp A-B (MDR1 (MDR1-MDCKII cells)): 20.8 10^−6 cm/s

Cc1ccc(-c2noc(C3(O)CC(F)(F)C3)n2)cc1NC(=O)c1cnc2ccccn12 [Compound I-380]
MDCKII-MDR1: Efflux Ratio (MDR1 (MDR1-MDCKII cells)): 2.34 | MDCKII-MDR1: Papp A-B (MDR1 (MDR1-MDCKII cells)): 10.9 10^−6 cm/s

Cc1ccc(-c2noc(C3CN(C(=O)CO)C3)n2)cc1NC(=O)c1cnc2ccccn12 [Compound I-287]
MDCKII-MDR1: Efflux Ratio (MDR1 (MDR1-MDCKII cells)): 27.9 | MDCKII-MDR1: Papp A-B (MDR1 (MDR1-MDCKII cells)): 0.83 10^−6 cm/s

COc1ccn2c(C(=O)Nc3cc(-c4noc(CC(O)C(F)F)n4)ccc3C)cnc2c1 (single isomer, unassigned) [Compound I-76]
IC50 [1]: ≤ 50 nM

Cc1ccc(-c2noc(C3CCS(=O)(=O)C3)n2)cc1NC(=O)c1cnc2ccccn12 (racemic) [Compound I-389]
MDCKII-MDR1: Efflux Ratio (MDR1 (MDR1-MDCKII cells)): 10.9 | MDCKII-MDR1: Papp A-B (MDR1 (MDR1-MDCKII cells)): 3.53 10^−6 cm/s

CCCNc1ccn2c(C(=O)Nc3cc(-c4noc([C@H]5C[C@@H]5F)n4)ccc3C)cnc2c1 [Compound I-304]
MDCKII-MDR1: Efflux Ratio (MDR1 (MDR1-MDCKII cells)): 1.08 | MDCKII-MDR1: Papp A-B (MDR1 (MDR1-MDCKII cells)): 3.65 10^−6 cm/s

COc1ccn2c(C(=O)Nc3cc(-c4noc(CC5CC(F)(F)C5)n4)ccc3C)cnc2c1 [Compound I-91]
IC50 [1]: ≤ 50 nM

Cc1ccc(-c2noc([C@H]3CCC(=O)N3)n2)cc1NC(=O)c1cnc2ccccn12 (racemic) [Compound I-327]
MDCKII-MDR1: Efflux Ratio (MDR1 (MDR1-MDCKII cells)): 38.7 | MDCKII-MDR1: Papp A-B (MDR1 (MDR1-MDCKII cells)): 0.78 10^−6 cm/s

Cc1ccc(-c2noc(CC3CC(F)(F)C3)n2)cc1NC(=O)c1cnc2ccccn12 [Compound I-124]
IC50 [1]: ≤ 50 nM

Cc1ccc(-c2noc([C@H]3C[C@@H]3F)n2)cc1NC(=O)c1cnn2ccccc12 [Compound I-109]
IC50 [1]: ≤ 50 nM

Cc1ccc(-c2noc(C3(N)CC4(CC(F)(F)C4)C3)n2)cc1NC(=O)c1cnc2ccccn12 [Compound I-307]
MDCKII-MDR1: Efflux Ratio (MDR1 (MDR1-MDCKII cells)): 1.93 | MDCKII-MDR1: Papp A-B (MDR1 (MDR1-MDCKII cells)): 8.84 10^−6 cm/s

Cc1nc(-c2ccc(C)c(NC(=O)c3cnc4cc(C(F)F)ccn34)c2)no1 [Compound I-134]
IC50 [1]: 500 to 5000 nM

COc1ccn2c(C(=O)Nc3cc(-c4noc(C[C@H](C)O)n4)ccc3C)cnc2c1 [Compound I-94]
IC50 [1]: ≤ 50 nM
